Measured values taken from patent US20120232070A1, “Use of Indole Derivatives as Nurr-1 Activators for the Application Thereof as a Medicament for the Treatment of Parkinson's Disease” (Laboratoires Fournier SA, priority 2009, published 2012).

Columns and labels:
[1] = molecular target: hNurr1_RXRγFL (NURR1/RXRγ heterodimer) (Homo sapiens, UniProt P43354+P48443); experiment: Transactivation assay in Cos-7 cells, NURR-1-Gal4 / RXRγ, luciferase reporter; type: cell-based; conditions: for Emax: COS-7, read-out: hNurr1_RXRγFL Eff (%), efficacy in % relative to the reference XCT0135908 at 2·10^−5 M (=100%); for EC50: Cos-7 cells, overnight incubation
Sequence of hNurr1_RXRγFL (NURR1/RXRγ heterodimer) (P43354 328-598): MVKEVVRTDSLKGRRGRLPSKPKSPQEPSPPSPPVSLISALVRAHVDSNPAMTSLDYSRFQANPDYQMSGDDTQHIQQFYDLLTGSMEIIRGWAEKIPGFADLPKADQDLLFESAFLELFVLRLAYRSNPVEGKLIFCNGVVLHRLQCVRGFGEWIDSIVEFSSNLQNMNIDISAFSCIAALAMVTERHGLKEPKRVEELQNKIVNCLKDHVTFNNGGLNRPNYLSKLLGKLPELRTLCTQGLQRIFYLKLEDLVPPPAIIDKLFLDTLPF
Sequence of hNurr1_RXRγFL (NURR1/RXRγ heterodimer) (P48443 whole entry, the tested form may be a part): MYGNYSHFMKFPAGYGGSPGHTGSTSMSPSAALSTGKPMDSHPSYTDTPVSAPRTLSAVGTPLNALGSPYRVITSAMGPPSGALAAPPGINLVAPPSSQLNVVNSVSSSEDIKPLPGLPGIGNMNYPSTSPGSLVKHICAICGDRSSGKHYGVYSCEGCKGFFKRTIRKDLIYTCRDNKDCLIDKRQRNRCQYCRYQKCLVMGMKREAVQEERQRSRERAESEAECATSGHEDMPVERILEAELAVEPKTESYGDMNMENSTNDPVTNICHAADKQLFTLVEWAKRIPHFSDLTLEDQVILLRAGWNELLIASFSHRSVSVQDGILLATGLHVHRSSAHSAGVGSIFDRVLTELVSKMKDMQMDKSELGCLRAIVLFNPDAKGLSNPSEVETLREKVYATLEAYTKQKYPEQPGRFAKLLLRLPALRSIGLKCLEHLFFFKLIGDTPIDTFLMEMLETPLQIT
How it was run: (§1)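 Efficiency is given as a percentage of the induction produced by 2·10^−5 M XCT0135908 (100%), measured from heterodimer baseline. Read-out was luciferase after overnight exposure to compounds (10^−4–3·10^−10 M final) in Cos-7 cells transfected with NURR-1-Gal4, RXRα or RXRγ, and a Gal4 luciferase reporter.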

[2] = test system: mice treated with 1-methyl-4-phenyl-1,2,3,6-tetrahydropyridine (MPTP); experiment: MPTP mouse model, dopamine in the striatum; type: in vivo, male C57BL6/J mice; conditions: oral, twice a day for 11 days; MPTP 25 mg/kg i.p. once a day for 5 days; FIGS. 1 and 2
Procedure: The compounds of examples 32 and 49 were assayed on a model of mice treated with 1-methyl-4-phenyl-1,2,3,6-tetrahydropyridine (MPTP) in order to confirm their potential activities. MPTP is a neurotoxin which causes permanent symptoms of Parkinson's disease by destroying certain neurons in the substantia nigra of the brain. The following procedure was used.
Male C57BL6/J mice aged 10-12 weeks at the start of the studies were distributed in groups of 8 animals. The compounds were administered orally, twice a day for a total of 11 days. Administration began 3 days before the treatment with the MPTP toxin at 25 mg/kg. MPTP was administered once a day by intraperitoneal injection for 5 days. Administration of the assayed compounds was continued for 3 days after the treatment with MPTP. One group of mice received the carrier only (0.5% solution of methylcellulose). The animals were euthanized after the last force-feeding and the striatum was removed. Dopamine was extracted from the striatum and the amount of dopamine (DA) expressed in ng per g of striatum (mean±SEM) was measured by high-performance liquid chromatography (HPLC) with electrochemical detection.

[3] = molecular target: hNurr1_RXRαFL (NURR1/RXRα heterodimer) (Homo sapiens, UniProt P19793+P43354); experiment: Transactivation assay in Cos-7 cells, NURR-1-Gal4 / RXRα, luciferase reporter; type: cell-based; conditions: for EC50: Cos-7 cells, overnight incubation
Sequence of hNurr1_RXRαFL (NURR1/RXRα heterodimer) (P19793 whole entry, the tested form may be a part): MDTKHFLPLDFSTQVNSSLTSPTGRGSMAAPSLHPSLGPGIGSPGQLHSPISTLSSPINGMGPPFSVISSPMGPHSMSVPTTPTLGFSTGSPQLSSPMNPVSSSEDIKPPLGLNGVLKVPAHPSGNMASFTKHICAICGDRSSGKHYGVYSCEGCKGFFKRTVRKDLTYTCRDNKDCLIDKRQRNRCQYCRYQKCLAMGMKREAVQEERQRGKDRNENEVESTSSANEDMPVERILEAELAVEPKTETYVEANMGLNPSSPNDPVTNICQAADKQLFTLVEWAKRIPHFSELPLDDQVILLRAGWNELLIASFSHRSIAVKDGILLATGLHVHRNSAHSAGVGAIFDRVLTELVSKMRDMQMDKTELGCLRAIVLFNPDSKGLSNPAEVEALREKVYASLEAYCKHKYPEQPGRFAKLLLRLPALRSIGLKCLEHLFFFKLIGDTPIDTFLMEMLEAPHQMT
Sequence of hNurr1_RXRαFL (NURR1/RXRα heterodimer) (P43354 328-598): as the sequence (P43354 328-598) above
How it was run: as §1

[4] = Plasma and cerebral pharmacokinetic profile after oral administration; type: in vivo, male C57B16 mouse; conditions: oral administration 10 mg/kg in the mouse; for Kp: male, C57B16, brain/plasma, read-out: Ratio AUCbrain/AUCplasma
Procedure: A first series of in vivo assays were conducted with some compounds according to the invention, for the purpose of determining their plasma and cerebral pharmacokinetic profile in the male C57B16 mouse and thus verify that the compounds were capable of crossing the blood-brain barrier. The following procedure was used.
Male C57B16 mice (25-30 g) obtained from the Janvier establishment, Le Genest-St-Isle, France were used for this study (12 mice per dose). The animals were fed with standard rodent feed (Purina Mills, St. Louis, Mo.), placed in cages and subjected to light/darkness cycles of 12 h/12 h, the temperature of the room being maintained at 22±2° C. and the humidity at 55±10%. The mice were not fasting before administration. Water was supplied ad libitum throughout the study. The assayed compound was administered orally at 10 mg/kg. For oral administration at 10 mg/kg, the animals were force-fed with 10 mL/kg of a suspension of the assayed compound, prepared in methylcellulose 400 cp 1%. The animals were euthanized by anaesthesia at intervals of 15 min, 30 min, 1 h, 3 h, 6 h and 8 h after force-feeding. At each interval, blood was collected and the brain was removed from each euthanized animal. 1 mL of blood collected in 1.5 mL tubes containing 20 μL of evaporated anticoagulant (solution of sodium heparinate at 1000 IU/mL) was centrifuged at 4500 g for 3 min, obtaining about 400 μL of plasma. The plasma was distributed in 2 aliquots of 200 μL which were stored at −20° C. until extraction by protein precipitation and then analysis by liquid chromatography coupled with tandem mass spectrometry (LC-MS/MS) for quantification of the assayed compound. The brains were immersed in liquid nitrogen directly after removal, then stored at −20° C. for analysis. The brains were then ground in the presence of aqueous/organic solvent mixture to obtain a homogenate. These homogenates were then centrifuged and the assayed compound was extracted from the supernatant by liquid-liquid extraction, then quantified by LC-MS/MS.
The pharmacokinetic parameters were determined according to a non-compartmental approach using Excel. The area under curve (AUC0-t) was determined by the linear trapezoidal method. This method allows estimation of the integral of the concentrations over an interval of time (AUC0-t) and is based on the sum of the areas of the trapeziums delimited by the concentrations measured at the time of sampling (example AUC0-8 h=AUC0-0.25 h+AUC0.25 h-0.5 h+AUC0.5 h-t+AUCt-8 h). The penetration of the compounds through the blood-brain barrier is assessed from the ratio of the AUC measured in the brain to that measured in plasma. As an example, with the compounds of examples 32 and 49, the following results were obtained: […]

Which results are given for `CC(C)c1cccc(S(=O)(=O)n2c(Cc3ccc(C(=O)O)cc3)cc3cc(C(F)(F)F)ccc32)c1` [Example 32, 4-[[1-[[3-(1-methylethyl)phenyl]sulfonyl]-5-(trifluoromethyl)-1H-indol-2-yl]methyl]benzoic acid]?
Emax [1]: 62%; EC50 [1]: 219 nM; effect on the MPTP-induced decrease of dopamine in the striatum [2]: dose-dependent decrease in the action of MPTP; EC50 [3]: 103 nM; hNurr1_RXRαFL Eff (%) ([3]; efficacy in % relative to the reference XCT0135908 at 2·10^−5 M (=100%)): 68%; Kp [4]: 0.8; AUCbrain [4]: 3763 ng·h/mL

For `CC(C)(C)c1cccc(S(=O)(=O)n2c(Cc3ccc(C(=O)O)cc3)cc3cc(C(F)(F)F)ccc32)c1` [Example 49, 4-[[1-[[3-(1,1-dimethylethyl)phenyl]sulfonyl]-5-(trifluoromethyl)-1H-indol-2-yl]methyl]benzoic acid], which Emax [1] is on record?
The Emax was 71%.

What about the EC50 [1] of the same molecule?
The EC50 was 110 nM.

And the “effect on the MPTP-induced decrease of dopamine in the striatum” value [2]?
Its value is “dose-dependent decrease in the action of MPTP”.

And the Emax ([3]; COS-7, read-out: hNurr1_RXRαFL Eff (%), efficacy in % relative to the reference XCT0135908 at 2·10^−5 M (=100%))?
The Emax was 73%.

What about the EC50 [3] of the same molecule?
Its EC50 is 48 nM.

What about the Kp [4] of the same molecule?
Its Kp is 0.8.

And the AUCbrain [4]?
The AUCbrain was 10491 ng·h/mL.
